Assay results from patent publication US20230190887A1, “TARGETING G3BP AGGREGATION TO PREVENT NEURODEGENERATION” (priority 2019, published 2023).
“Also recorded” adds a separate entry of the source.

What was measured:
[1] = test system: G3BP1, TIA1, FMRP, FXR, TDP43 and FUS-TLS aggregates in E18 cortical neurons; assay: RNA binding protein aggregates along axons of Aβ oligomer-treated cortical neurons; format: cell-based, rat; conditions: 1 μM Aβ oligomer 2 hours, then peptide for additional 4 hours
Method: The data in FIGS. 13A-F and 14A-F raise the possibility that stress granule targeting therapies like the cell permeable G3BP1 190-208 peptide may decrease or even prevent loss of neurons across different types of neurodegenerative diseases. To address this possibility, the current disclosure asked if the cell permeable G3BP1 190-208 peptide could disassemble pathological protein aggregates in neurons. For this, 7 day cortical neuron cultures were treated with 1 μM A[…] oligomer for 2 hours and then treated with cell permeable G3BP1 190-208 peptide or a scramble sequence cell permeable peptide for an additional 4 hours. […] Thus, the cell permeable G3BP1 190-208 peptide can not only prevent RNA binding protein aggregation in axons after exposure to neurotoxins associated AD and PD, but it can also trigger disassembly of these pathological aggregates after they begin to form.
Representative confocal images for G3BP1. […] Quantifications for co:localization of FMRP, FXR, TDP43, FUS-TLS and TIA1 with G3BP1 in axons of E18 cortical neurons treated as in C are shown as average Pearson's coefficient±SEM (N≥120 aggregates over three repetitions and *p≤0.01, **p≤0.005, ***p≤0.001 for entire population distributions by Fishers exact test for FIG. 15B and FIG. 15D; […] neurons over 3 repetitions and *p≤0.01 **p≤0.005, ***p≤0.001 by one-way ANOVA with Tukey HSD post-hoc for FIG. 15E).

[2] = test system: G3BP1 and pTDP-43 particles in C9ORF72 iPS-MN axons; assay: G3BP1/pTDP-43 RNP condensates in iPS-MN axons; format: cell-based, human; conditions: peptide exclusively in the axonal compartment of the MFC
From the text: Formation of G3BP1-positive RNP condensates is strongly associated with repressed RNA translation, see Sahoo, P. K. et al. A Ca^2+ dependent switch activates axonal casein kinase 2α translation and drives G3BP1 granule disassembly for axon regeneration. Curr. Biol. 30, 4882-4895.e6 (2020), and altered mRNA transport, see Liao, Y. C. et al. RNA granules hitchhike on lysosomes for long-distance transport, using Annexin All as a molecular tether. Cell 179, 147-164.e20 (2019), leading to reduced protein synthesis, see Sahoo, P. K. et al. Axonal G3BP1 stress granule protein limits axonal mRNA translation and nerve regeneration. Nat. Commun. 9, 1-14 (2018). […] By quantifying OPP puncta density within in vitro NMJs, we identified robust protein synthesis within control co-cultures, while protein synthesis in TDPΔNLS NMJs was severely impaired (FIG. 19 3k-l). […] Unpaired-t-test, two-sided ****p<0.0001. c Images and d-f quantification of NFH, pTDP-43 and G3BP1 and their colocalization in C9ORF72 iPS-MN axons either treated or not with G3BP1 peptide. Quantifications of G3BP1 particle density (d), G3BP1-pTDP-43 coloc-particle density (e) and G3BP1-pTDP-43 coloc-particle size (f) from C9ORF72 and control iPS-MN axons, either treated or not with G3BP1 peptide. […] One-way-ANOVA with Holm-Sidak correction. […], ****p<0.0001. i Images and j quantification of OPP puncta density in control or ΔNLS MN axons. […]

YGNKKNNNQNNN-VVEPEPEPEPEPEPEPVSE [G3BP1 190-208 peptide]
TIA1, FMRP, FXR, TDP43 and FUS-TLS colocalization with G3BP1 [1]: significantly decreased
size of G3BP1, TIA1, FMRP, FXR, TDP43 and FUS-TLS aggregates along axons [1]: significantly decreased size; also recorded: reduction in amyloid beta treatment dependent G3BP1-associated protein aggregates
G3BP1/pTDP43 particle size [2]: Reduce G3BP1/pTDP43 particle size
pTDP43 RNP-condensate density [2]: Reduce
